Data: the NIST ThermoML archive (doi:10.1016/j.tca.2013.03.018)

Details: Liquid, DSC

CCCCCCCCO [octan-1-ol]
Details | vapor or sublimation pressure [kPa]
333.69 K | 0.2242
333.97 K | 0.2242
334.46 K | 0.2376
341.76 K | 0.3855
342.1 K | 0.3855
343.33 K | 0.372
344.5 K | 0.3855
348.2 K | 0.5736
348.72 K | 0.587
349.1 K | 0.6004
349.38 K | 0.587
352.09 K | 0.7483
352.98 K | 0.802
353.96 K | 0.8087
354.96 K | 0.7886
357.9 K | 1.071
357.94 K | 1.057
357.99 K | 1.057
358.41 K | 1.071
362.88 K | 1.434
363.3 K | 1.447
363.51 K | 1.46
364.35 K | 1.474
369.69 K | 2.105
369.76 K | 2.092
369.9 K | 2.132
370 K | 2.132
379.04 K | 3.436
379.35 K | 3.489
379.45 K | 3.489
379.49 K | 3.489
387.2 K | 5.169
387.28 K | 5.156
387.87 K | 5.182
387.92 K | 5.169
407.24 K | 13.57
408.44 K | 13.58
408.9 K | 13.55
409.3 K | 13.55
435.48 K | 40.47
438.31 K | 40.53
438.58 K | 40.53
438.8 K | 40.53
468.15 K | 101.4
468.47 K | 101.4
